According to patent US7199100B2, “Cyclic peptides, method for preparing and use as angiogenesis inhibitors or activator” (Commissariat a l'Energie Atomique, priority 2000, dated 2007):
Where two headings read alike, the source gives them in different places. Square brackets hold non-standard residues; d marks the D form. Peptide text beside a SMILES is read from it. * marks the point of attachment. OAll = C=CCO*

Key:
KDR receptor (VEGFR2) = target: T1, KDR receptor (VEGFR2) (Homo sapiens, UniProt P35968); assay: Inhibition of 125I-VEGF binding to KDR receptor on CHOm VEGFR2 cells; conditions: for inhibiting binding of VEGF to the KDR receptor (in words): 125I-VEGF
T1 construct: expressed in transfected cells; host or cells: heparan sulfate deficient Chinese hamster ovary cells (CHOm VEGFR2), VEGFR2 cDNA in psV-7d vector
T1 sequence (P35968 20-1356, species assumed): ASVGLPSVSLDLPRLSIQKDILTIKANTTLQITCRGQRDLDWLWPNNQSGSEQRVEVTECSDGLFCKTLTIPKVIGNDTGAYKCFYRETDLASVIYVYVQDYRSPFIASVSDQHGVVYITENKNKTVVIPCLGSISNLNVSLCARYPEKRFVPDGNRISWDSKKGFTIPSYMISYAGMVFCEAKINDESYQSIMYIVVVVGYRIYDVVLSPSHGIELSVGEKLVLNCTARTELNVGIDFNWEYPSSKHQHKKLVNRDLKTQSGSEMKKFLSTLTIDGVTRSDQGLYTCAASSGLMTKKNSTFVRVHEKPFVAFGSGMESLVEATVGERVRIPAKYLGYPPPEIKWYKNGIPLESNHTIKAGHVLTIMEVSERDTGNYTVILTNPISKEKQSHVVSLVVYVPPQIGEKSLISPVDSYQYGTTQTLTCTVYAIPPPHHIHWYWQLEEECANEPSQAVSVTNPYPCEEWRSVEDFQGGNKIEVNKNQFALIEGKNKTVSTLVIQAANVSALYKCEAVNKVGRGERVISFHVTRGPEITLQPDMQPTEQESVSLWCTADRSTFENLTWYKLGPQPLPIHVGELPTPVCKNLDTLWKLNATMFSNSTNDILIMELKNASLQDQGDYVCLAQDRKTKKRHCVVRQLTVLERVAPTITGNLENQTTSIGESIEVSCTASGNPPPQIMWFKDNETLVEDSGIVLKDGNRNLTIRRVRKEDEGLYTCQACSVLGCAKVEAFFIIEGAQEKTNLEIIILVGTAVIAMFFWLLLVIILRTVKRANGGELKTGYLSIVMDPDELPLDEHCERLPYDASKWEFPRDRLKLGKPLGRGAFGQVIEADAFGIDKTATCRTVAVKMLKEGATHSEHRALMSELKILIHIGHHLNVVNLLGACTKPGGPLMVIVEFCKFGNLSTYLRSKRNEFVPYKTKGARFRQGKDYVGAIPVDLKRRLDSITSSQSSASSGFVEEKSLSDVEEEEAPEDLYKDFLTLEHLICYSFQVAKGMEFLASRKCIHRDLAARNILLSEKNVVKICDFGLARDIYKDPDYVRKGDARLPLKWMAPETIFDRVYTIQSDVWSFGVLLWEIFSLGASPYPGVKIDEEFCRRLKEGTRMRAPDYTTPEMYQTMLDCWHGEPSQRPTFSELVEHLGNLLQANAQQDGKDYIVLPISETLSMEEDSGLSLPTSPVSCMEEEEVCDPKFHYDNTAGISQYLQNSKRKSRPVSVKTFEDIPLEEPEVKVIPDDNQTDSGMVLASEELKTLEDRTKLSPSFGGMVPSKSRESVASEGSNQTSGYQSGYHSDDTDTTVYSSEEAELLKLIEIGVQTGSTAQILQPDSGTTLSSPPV
Experimental: The P1 to P24 peptides are tested as concerns their property of inhibition of the binding of VEGF to its KDR receptor.
For these tests, heparin sulfate deficient Chinese hamster ovarian cells that are transfected with an expression vector containing VEGFR2cDnA (CHOm VEGFR2 cells) are used.
The CHOm VEGFR2 cells are routinely cultured in Dulbecco modified Eagle medium and supplemented with 10% (v/v) fetal calf serum (FCS), 50 U/ml penicillin, 50 μg/ml streptomycin, 1 mg/ml glucose and 2 mM L-glutamine at 37° C. in a 5% CO2 atmosphere.
The subconfluent flasks are transferred at 4° C. […] At the end of the incubation period, the cells are washed 3 times using iced PBS and solubized in 1 mL of buffer with 2% Triton X 100, 10% glycol, 1 mg/mL bovine serum albumin BSA. The radioactivity rate bound to the cells is counted in an MR-250 Kontron gamma counter. […] Specific binding is calculated by subtracting non-specific binding from total binding.
These assays are continued using the cyclopeptides of interest and two linear peptides as controls for an inhibition analysis as a function of dose.

endothelial cells [1] = assay: VEGF-stimulated endothelial cell proliferation (cell count); type: cell-based; conditions: 10 ng/mL of VEGF
Experimental: Cellular proliferation is measured by cell count. 7,000 endothelial cells are placed in the wells of 24-well plates (Costar) in DMEM medium containing newborn bovine serum. […] Two days later, the cells area once again stimulated by VEGF in the presence or absence of different concentrations of peptide. At the fifth day, the cells are trypsinized and counted using a Coulter counter.

endothelial cells [2] = assay: VEGF-stimulated endothelial cell migration (monolayer denudation); type: cell-based; conditions: 10 ng/mL VEGF
Experimental: Cellular migration is measured according to the method described by Sato and Rifkin (J. Cell Biol., September, 1988, (107 (3): 1199–205) [17] with modifications. 100,000 endothelial cells are placed in 35 mm culture flasks in DMEM medium containing 10% fetal calf serum. On confluence, the medium is replaced by DMEM medium without serum and the cells are incubated overnight. On the next day, denudation is done artificially in the monolayer using a sterile pipette tip. A series of digital photographs is taken and the border of denudation is marked by a line using the BiocomVisionLab2000 program. The flasks are then rinsed and incubated with 10 ng/mL VEGF in the presence or absence of peptide. After 18 hours of incubation a new series of photographs is taken and the before and after stimulation images are superimposed. The cells situated beyond the border of denudation are counted.

ERK2 (p42) = assay: VEGF-induced phosphorylation of ERK2 (p42), Western blot, capillary endothelial cells; type: cell-based; conditions: p42 and p44 together, 10 ng/mL of VEGF
Experimental: Phosphorylation of ERK1 (p44) and ERK2 (p42) is measured by Western blot using anti p42/p44 antibodies (New England Biolabs). The capillary endothelial cells are cultivated in DMEM containing 10% newborn bovine serum. Subconfluent cultures are then deprived of serum over a period of 24 hours. The peptides are then added at specific concentrations over 5 minutes to the cells in the presence or absence of 10 ng/mL of VEGF. The cells are then removed from the culture flasks and lysed for 20 minutes over ice in lysis buffer containing […], pH 7.4, 75 mM NaCl, 1 mM EDTA, 1% Nonidet P-40 and 0.01% of SDS. The insoluble material is removed by centrifugation and 50 μg/mL of protein extract are separated by polyacrylamide gel electrophoresis containing sodium dodecyl sulfate (SDS) under denaturing conditions. The proteins are then transferred from the gel onto a nitrocellulose membrane (Amersham Pharmacia Biotech, Orsay) using a transfer apparatus (semi-dry transfer, Bio-Rad, Irvy-sur-Seine, France). […] The results are quantified using the Image Quant program (Molecular Dynamics).
The assays were done as indicated. […] The degree of phosphorylation is estimated after quantification of the signals obtained using autoradiographic films and the results are expressed in percent inhibition relative to the signal obtained using 10 ng/mL of VEGF alone.

[3] = CHOm VEGFR2 cells, 5 ng/mL 125I-VEGF, 2 hours at 4° C.

inhibiting binding of VEGF to the KDR receptor (in words) (KDR receptor (VEGFR2); CHOm VEGFR2 cells) | Compound | IC50 (KDR receptor (VEGFR2)) [µM] | other results
 | CC[C@H](C)[C@H](NC(=O)[C@H](CCCNC(=N)N)NC(=O)CN)C(=O)N[C@@H](CCCCN)C(=O)N1CCC[C@@H]1C(=O)N[C@@H](Cc1c[nH]cn1)C(=O)N[C@@H](CCC(N)=O)C(=O)NCC(=O)N[C@@H](CCC(N)=O)C(=O)N[C@@H](Cc1c[nH]cn1)C(=O)O [Peptide P6, H-Gly-Arg-Ile-Lys-DPro-His-Gln-Gly-Gln-His-OH] (H-GRIK[dP]HQGQH-OH) | > 300 | 
 | H-QIMRIKPH-OH [Peptide P2] | > 300 | 
 | CC[C@H](C)[C@@H]1NC(=O)[C@H](Cc2c[nH]cn2)NC(=O)[C@H](CCC(N)=O)NC(=O)CNC(=O)[C@H](CCC(N)=O)NC(=O)[C@H](Cc2c[nH]cn2)NC(=O)[C@@H]2CCCN2C(=O)[C@H](CCCCN)NC(=O)[C@H]([C@@H](C)CC)NC(=O)[C@H](CCCNC(=N)N)NC(=O)[C@H](CCSC)NC(=O)[C@H]([C@@H](C)CC)NC(=O)[C@H](CCC(N)=O)NC(=O)[C@@H]2CCCN2C(=O)[C@H](CCC(=O)O)NC(=O)CNC1=O [Peptide P13] (cyclo(EPQIMRIKPHQGQHIG)) | > 300 | 
 | H-RIKPHQG-OH [Peptide P3, H-Arg-Ile-Lys-Pro-His-Gln-Gly-OH] | > 300 | 
 | H-QIMRIKPHQGQHIG-OH [Peptide P5] | > 300 | 
very effective | CC[C@H](C)[C@@H]1NC(=O)[C@H](Cc2c[nH]cn2)NC(=O)[C@H](CCC(N)=O)NC(=O)CNC(=O)[C@H](CCC(N)=O)NC(=O)[C@H](Cc2c[nH]cn2)NC(=O)[C@@H]2CCCN2C(=O)[C@H](CCCCN)NC(=O)[C@H]([C@@H](C)CC)NC(=O)[C@H](CCCNC(=N)N)NC(=O)[C@H](CCSC)NC(=O)[C@H]([C@@H](C)CC)NC(=O)[C@H](CCC(N)=O)NC(=O)[C@H](CCC(=O)O)NC(=O)CNC1=O [Peptide P19] (cyclo(QIMRIKPHQGQHIGE)) |  | 
 | CC[C@H](C)[C@@H]1NC(=O)[C@H](CCCNC(=N)N)NC(=O)[C@@H]2CCCN2C(=O)[C@H](Cc2c[nH]cn2)NC(=O)[C@H](CCC(N)=O)NC(=O)CNC(=O)[C@H](CCC(N)=O)NC(=O)[C@H](Cc2c[nH]cn2)NC(=O)[C@@H]2CCCN2C(=O)[C@H](CCCCN)NC1=O [Peptide P9] (cyclo(GQHPRIKPHQ)) | 300 | 
 | CC[C@H](C)[C@@H]1NC(=O)[C@H](CCCNC(=N)N)NC(=O)CNC(=O)[C@H](Cc2c[nH]cn2)NC(=O)[C@H](CCC(N)=O)NC(=O)CNC(=O)[C@H](CCC(N)=O)NC(=O)[C@H](Cc2c[nH]cn2)NC(=O)[C@H]2CCCN2C(=O)[C@H](CCCCN)NC1=O [Peptide P7, cyclo(Gly-Arg-Ile-Lys-DPro-His-Gln-Gly-Gln-His)] (cyclo(GQHGRIK[dP]HQ)) | > 300 | 
 | CC[C@H](C)[C@@H]1NC(=O)[C@H](CCC(N)=O)NC(=O)[C@H](CCC(=O)O)NC(=O)[C@H](CCC(N)=O)NC(=O)[C@H](Cc2c[nH]cn2)NC(=O)[C@@H]2CCCN2C(=O)[C@H](CCCCN)NC(=O)[C@H]([C@@H](C)CC)NC(=O)[C@H](CCCNC(=N)N)NC(=O)[C@H](CCSC)NC1=O [Peptide P22, reference compound] (cyclo(EQIMRIKPHQ)) | > 300 | 
very effective | CC[C@H](C)[C@@H]1NC(=O)[C@H](CCCNC(=N)N)NC(=O)CNC(=O)[C@H](CCC(N)=O)NC(=O)[C@H](Cc2c[nH]cn2)NC(=O)[C@@H]2CCCN2C(=O)[C@H](CCCCN)NC1=O [Peptide P16, cyclo(Arg-Ile-Lys-Pro-His-Gln-Gly)] (cyclo(RIKPHQG)) |  | 
 | CC[C@H](C)[C@@H]1NC(=O)[C@H](CCCNC(=N)N)NC(=O)CNC(=O)[C@H](Cc2c[nH]cn2)NC(=O)CNC(=O)[C@H](CCC(N)=O)NC(=O)[C@H](Cc2c[nH]cn2)NC(=O)[C@@H]2CCCN2C(=O)[C@H](CCCCN)NC1=O [Peptide P8] (cyclo(GRIKPHQGH)) |  | IC50 (KDR receptor (VEGFR2); [3]): 200 µM
very effective | CC[C@H](C)[C@@H]1NC(=O)[C@H](CCCNC(=N)N)NC(=O)[C@@H]2CCCN2C(=O)[C@@H](Cc2ccc(O)cc2)NC(=O)[C@H](CCC(N)=O)NC(=O)[C@H](Cc2c[nH]cn2)NC(=O)[C@@H]2CCCN2C(=O)[C@H](CCCCN)NC1=O [Peptide P23] (cyclo([dY]PRIKPHQ)) |  | 
very effective | CC[C@H](C)[C@@H]1NC(=O)[C@H](Cc2c[nH]cn2)NC(=O)[C@H](CCC(N)=O)NC(=O)CNC(=O)[C@H](CCC(N)=O)NC(=O)[C@H](Cc2c[nH]cn2)NC(=O)[C@@H]2CCCN2C(=O)[C@H](CCCCN)NC(=O)[C@H]([C@@H](C)CC)NC(=O)[C@H](CCCNC(=N)N)NC(=O)[C@H](CCSC)NC(=O)[C@H]([C@@H](C)CC)NC(=O)[C@H](CCC(N)=O)NC(=O)[C@@H]2CCCN2C(=O)[C@@H](Cc2ccccc2)NC(=O)[C@H](CCC(=O)O)NC(=O)CNC1=O [Peptide P11] (cyclo([dF]PQIMRIKPHQGQHIGE)) |  | inhibition of cellular proliferation (in words) (endothelial cells [1]): strong inhibition; inhibition of cellular migration (in words) (endothelial cells [2]): strongly inhibits; inhibition of phosphorylation of p42/p44 (in words) (ERK2 (p42)): strongly inhibits
 | H-PQIMRIKPHQGQHIGE-OH [Peptide P14] | > 300 | 
 | CC[C@H](C)[C@@H]1NC(=O)[C@H](Cc2c[nH]cn2)NC(=O)[C@H](CCC(N)=O)NC(=O)CNC(=O)[C@H](CCC(N)=O)NC(=O)[C@H](Cc2c[nH]cn2)NC(=O)[C@@H]2CCCN2C(=O)[C@H](CCCCN)NC(=O)[C@H]([C@@H](C)CC)NC(=O)[C@H](CCCNC(=N)N)NC(=O)[C@H](CCSC)NC(=O)[C@H]([C@@H](C)CC)NC(=O)[C@H](CCC(N)=O)NC(=O)CNC(=O)[C@H](CCC(=O)O)NC(=O)CNC1=O [Peptide P12] (cyclo(EGQIMRIKPHQGQHIG)) | 300 | 
 | CC[C@H](C)[C@@H]1NC(=O)[C@H](CCCNC(=N)N)NC(=O)[C@H](CCSC)NC(=O)[C@H]([C@@H](C)CC)NC(=O)[C@@H]2CCCN2C(=O)[C@@H](Cc2ccccc2)NC(=O)[C@H]([C@@H](C)CC)NC(=O)[C@H](Cc2c[nH]cn2)NC(=O)[C@H](CCC(N)=O)NC(=O)CNC(=O)[C@H](CCC(N)=O)NC(=O)[C@H](Cc2c[nH]cn2)NC(=O)[C@@H]2CCCN2C(=O)[C@H](CCCCN)NC1=O [Peptide P21] (cyclo(GQHI[dF]PIMRIKPHQ)) | 200 | 
 | H-RIKPH-OH [Peptide P1, H-Arg-Ile-Lys-Pro-His-OH] |  | IC50 (KDR receptor (VEGFR2); [3]): > 300 µM
very effective | CC[C@H](C)[C@@H]1NC(=O)[C@H](CCCNC(=N)N)NC(=O)CNC(=O)[C@H](Cc2c[nH]cn2)NC(=O)[C@@H]2CCCN2C(=O)[C@H](CCCCN)NC1=O [Peptide P24, cyclo(Gly-Arg-Ile-Lys-Pro-His)] (cyclo(GRIKPH)) |  | IC50 (KDR receptor (VEGFR2); [3]): 8 µM
 | C=CCOC(=O)[C@H](CCC(=O)O)NC(=O)CNC(=O)[C@@H](NC(=O)[C@H](Cc1c[nH]cn1)NC(=O)[C@H](CCC(N)=O)NC(=O)CNC(=O)[C@H](CCC(N)=O)NC(=O)[C@H](Cc1c[nH]cn1)NC(=O)[C@@H]1CCCN1C(=O)[C@H](CCCCN)NC(=O)[C@@H](NC(=O)[C@H](CCCNC(=N)N)NC(=O)[C@H](CCSC)NC(=O)[C@@H](NC(=O)[C@@H](N)CCC(N)=O)[C@@H](C)CC)[C@@H](C)CC)[C@@H](C)CC [Peptide P10] (H-QIMRIKPHQGQHIGE-OAll) | > 300 | 
 | H-QIMRIKPHQGQHIGE-OH [Peptide P4] | > 300 | 
 | H-GQIMRIKPHQGQHIGE-OH [Peptide P15] | > 300 | 

Compound | inhibiting binding of VEGF to the KDR receptor (in words) (KDR receptor (VEGFR2); CHOm VEGFR2 cells) | IC50 (KDR receptor (VEGFR2)) [µM] | other results
CC[C@H](C)[C@@H]1NC(=O)[C@H](CCCNC(=N)N)NC(=O)[C@@H]2CCCN2C(=O)CNC(=O)[C@H](CCC(N)=O)NC(=O)[C@H](Cc2c[nH]cn2)NC(=O)[C@@H]2CCCN2C(=O)[C@H](CCCCN)NC1=O [Peptide P17] (cyclo(PRIKPHQG)) | very effective | 10 | 
CC[C@H](C)[C@@H]1NC(=O)[C@H](Cc2c[nH]cn2)NC(=O)[C@H](CCC(N)=O)NC(=O)CNC(=O)[C@H](CCC(N)=O)NC(=O)[C@H](Cc2c[nH]cn2)NC(=O)[C@@H]2CCCN2C(=O)[C@H](CCCCN)NC(=O)[C@H]([C@@H](C)CC)NC(=O)[C@H](CCCNC(=N)N)NC(=O)[C@H](CCSC)NC(=O)[C@H]([C@@H](C)CC)NC(=O)[C@H](CCC(N)=O)NC(=O)[C@@H]2CCCN2C(=O)[C@@H](Cc2ccccc2)NC(=O)CNC1=O [Peptide P20] (cyclo([dF]PQIMRIKPHQGQHIG)) | very effective | 10 | 
